According to patent US20250270200A1, “CTPS1 INHIBITORS AND USES THEREOF” (Nimbus Clotho, Inc., priority 2022, published 2025):

Molecular target: T1, human CTPS1 (Homo sapiens, UniProt P17812)
T1 sequence (P17812 1-591): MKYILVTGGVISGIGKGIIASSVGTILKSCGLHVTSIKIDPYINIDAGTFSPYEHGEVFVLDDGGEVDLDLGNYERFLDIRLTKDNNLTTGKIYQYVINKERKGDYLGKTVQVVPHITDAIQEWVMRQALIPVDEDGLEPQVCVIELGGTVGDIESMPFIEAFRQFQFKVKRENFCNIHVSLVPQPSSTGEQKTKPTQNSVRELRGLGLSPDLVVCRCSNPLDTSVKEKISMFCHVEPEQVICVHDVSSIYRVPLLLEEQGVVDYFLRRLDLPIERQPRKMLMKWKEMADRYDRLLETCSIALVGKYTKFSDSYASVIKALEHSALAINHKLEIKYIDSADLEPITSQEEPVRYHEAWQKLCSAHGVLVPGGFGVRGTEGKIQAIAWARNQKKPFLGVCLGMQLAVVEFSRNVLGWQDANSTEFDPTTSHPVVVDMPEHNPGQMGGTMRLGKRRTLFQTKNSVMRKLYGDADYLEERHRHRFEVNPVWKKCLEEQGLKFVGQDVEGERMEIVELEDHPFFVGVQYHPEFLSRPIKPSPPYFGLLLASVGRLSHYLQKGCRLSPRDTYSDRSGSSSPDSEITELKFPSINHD
Assay: ADP-Glo assay, human CTPS1 enzyme inhibition
Format: biochemical
Conditions: wild-type human CTPS1, 25 nM enzyme; ADP-Glo; read-out: ADP-Glo_WT_hCTPS1—25 nM_IC50 (IC50)
Description: The enzyme inhibitory activities of the compounds of the invention against the target of interest were determined using the ADP-Glo™ assay (Promega). Assays for human CTPS1 and CTPS2 were performed in 1× assay buffer containing 50 mM HEPES (Life Technologies), 10 mM Mg2+, 5 mM KCl, 2 mM DTT, 0.01% F-127, pH to 7.4 accordingly. All reagents are from Sigma-Aldrich, unless specified otherwise. Purified human full length active N-terminal FLAG-8×HIS-TEV tagged CTPS1 (UniprotKB—P17812, […]-CTPS1[1-591]) was generated using a mammalian expression system at Viva Biotech (Shanghai) Ltd.
Purified human CTPS1 protein was prepared in 1× assay buffer to the final working protein concentration required for the reaction. A 2.5 μL volume per well of human CTPS 1 protein was mixed with 0.1 μL per well of test compound dissolved in DMSO and pre-incubated at 25 degrees C. for 10 minutes. 2.5 μL per well of the reaction precursors ATP (UltraPure ATP from ADP-Glo™ kit) and UTP were then added and pre-incubated for an additional 10 minutes at 25 degrees C. Finally, the reaction was initiated by the addition of 5 μL of the reaction precursors L-glutamine and GTP. The final concentration of all reaction components in the assay: ATP (120 μM), UTP (160 μM), GTP (60 μM), L-Glutamine (100 μM), DMSO (1%), hCTPS1 (25 nM). This mixture was incubated for an appropriate amount of time within the determined linear phase of the reaction at 25 degrees C. under sealed plate conditions with constant agitation at 500 revolutions per minute (rpm). ADP-Glo™ reagent was added for 60 minutes (10 μL per well) and subsequently ADP-Glo™ development reagent was added for 60 minutes (20 μL per well) prior to signal detection in a microplate reader (Envision Multilabel Reader, Perkin Elmer). Following each reagent addition over the course of the assay, assay plates were pulse centrifuged for 1 minute at 1000 rpm.
The enzyme converts ATP to ADP and the ADP-Glo™ reagent subsequently depletes any remaining ATP in the reaction system. The ADP-Glo™ detection reagents converts the ADP that has been produced by the enzyme back into ATP, which is then utilized as a substrate together with luciferin for the enzyme luciferase. Light generated by this chemiluminescent reaction is quantified and is directly proportional to the amount of ADP produced by the CTPS1 enzyme reaction. […]

SMILES	IC50
CCOc1cncc(-c2cnc(C(=O)N[C@H](CN3C[C@H]4CC[C@@H]3C4)c3cccc(NS(=O)(=O)C(F)F)c3)s2)n1 [I-211, N-((S)-2-((1R,4S)-2-azabicyclo[2.2.1]heptan-2-yl)-1-(3-((difluoromethyl)sulfonamido)phenyl)ethyl)-5-(6-ethoxypyrazin-2-yl)thiazole-2-carboxamide]	50 to 100 nM
C[C@H](O)[C@H](NC(=O)c1ncc(-c2cnn3ccc(Cl)cc23)s1)c1cc(NS(=O)(=O)C2CC2)ccn1 [I-272, 5-(5-chloropyrazolo[1,5-a]pyridin-3-yl)-N-((1R,2S)-1-(4-(cyclopropanesulfonamido)pyridin-2-yl)-2-hydroxypropyl)thiazole-2-carboxamide]	5 to 25 nM
CCOc1cncc(-c2cnc(C(=O)N[C@@H](c3cc(NS(=O)(=O)C4CC4)ccn3)[C@@H](C)CN3CCCCC3)s2)n1 (stereo in doubt) [I-52, N-((1R,2S)-1-(4-(cyclopropanesulfonamido)pyridin-2-yl)-2-methyl-3-(piperidin-1-yl)propyl)-5-(6-ethoxypyrazin-2-yl)thiazole-2-carboxamide]	50 to 100 nM
CCOc1cncc(-c2cnc(C(=O)N[C@H](c3cc(NS(=O)(=O)C4CC4)ccn3)[C@H]3CCN(C4CC4)C3)s2)n1 [I-112, N-((S)-(4-(cyclopropanesulfonamido)pyridin-2-yl)((S)-1-cyclopropylpyrrolidin-3-yl)methyl)-5-(6-ethoxypyrazin-2-yl)thiazole-2-carboxamide]	5 to 25 nM
CCOc1cncc(-c2cnc(C(=O)N(C)[C@H](CN3CCOCC3)c3cc(NS(=O)(=O)C4CC4)ccn3)s2)n1 [I-142, (R)-N-(1-(4-(cyclopropanesulfonamido)pyridin-2-yl)-2-morpholinoethyl)-5-(6-ethoxypyrazin-2-yl)-N-methylthiazole-2-carboxamide]	> 100 nM
CCOc1cncc(-c2cnc(C(=O)N[C@H](c3cc(NS(=O)(=O)C4CC4)ccn3)[C@@H]3CCCN3C)s2)n1 [I-115, N-((S)-(4-(cyclopropanesulfonamido)pyridin-2-yl)((S)-1-methylpyrrolidin-2-yl)methyl)-5-(6-ethoxypyrazin-2-yl)thiazole-2-carboxamide]	50 to 100 nM
CCOc1cncc(-c2cnc(C(=O)N[C@H](CN3CCN(C4CC4)CC3)c3cccc(NS(=O)(=O)C(F)F)c3)s2)n1 (single isomer, unassigned) [I-40]	25 to 50 nM
CCOc1cncc(-c2cnc(C(=O)N(C)[C@H](c3cc(NS(=O)(=O)C4CC4)ccn3)[C@H]3CCOC3)s2)n1 [I-63, N-((S)-(4-(cyclopropanesulfonamido)pyridin-2-yl)((R)-tetrahydrofuran-3-yl)methyl)-5-(6-ethoxypyrazin-2-yl)-N-methylthiazole-2-carboxamide]	> 100 nM
CCOc1cncc(-c2cnc(C(=O)N[C@H](Cn3ccnn3)c3cccc(NS(=O)(=O)C(F)F)c3)s2)n1 [I-215, (S)-N-(1-(3-((difluoromethyl)sulfonamido)phenyl)-2-(1H-1,2,3-triazol-1-yl)ethyl)-5-(6-ethoxypyrazin-2-yl)thiazole-2-carboxamide]	5 to 25 nM
CCOc1cncc(-c2cnc(C(=O)NCc3cncc(NS(=O)(=O)C4CC4)n3)s2)n1 [I-180, N-((6-(cyclopropanesulfonamido)pyrazin-2-yl)methyl)-5-(6-ethoxypyrazin-2-yl)thiazole-2-carboxamide]	5 to 25 nM
CCOc1cncc(-c2cnc(C(=O)N[C@H](c3cc(NS(=O)(=O)C4CC4)ncn3)[C@H]3CCOC3)s2)n1 [I-259, N-((S)-(6-(cyclopropanesulfonamido)pyrimidin-4-yl)((R)-tetrahydrofuran-3-yl)methyl)-5-(6-ethoxypyrazin-2-yl)thiazole-2-carboxamide]	5 to 25 nM
CCOc1cncc(-c2cnc(C(=O)N[C@H](CO)c3cc(NS(=O)(=O)C4CC4)ccn3)s2)n1 [I-263, (S)-N-(1-(4-(cyclopropanesulfonamido)pyridin-2-yl)-2-hydroxyethyl)-5-(6-ethoxypyrazin-2-yl)thiazole-2-carboxamide]	5 to 25 nM
